Measurements published in patent publication US20180071317A1, “USE OF AGENTS THAT ALTER THE PERITUMORAL ENVIRONMENT FOR THE TREATMENT OF CANCER” (SERVICIO ANDALUZ DE SALUD, priority 2011, published 2018).

Key:
[1] = system: fibroblasts (PHF) co-cultured with tumor cells in human prostate carcinoma (22Rv1); test: Marker expression (IHC) in PHF co-cultured with 22Rv1 tumor cells; assay type: cell-based; conditions: co-culture with 22Rv1; SP 1 μM; 48 h;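 also: cultures grown on fresh plasma from a healthy donor, each experiment run sixfold, values give the percentage of fibroblasts positive for the given marker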
Procedure: (§1) All cultures were maintained 48 hours, following which the same cells were included in paraffin blocks for subsequent analysis of the expression of different markers by immunohistochemistry (see Example 1). […] All experiments were carried out sixfold. Analyzed markers in fibroblast cells (stromal cells) were: TGF-α, TGF-β1, TGF-β2, TGF-β3, SPARC, MMP-3, MMP-7, MMP-9, MMP-11, MMP-13 and MMP-14.

[2] = system: human primary fibroblasts (PHF); test: Marker expression (immunohistochemistry) in human primary fibroblasts with SP alone or with NK1 antagonists; assay type: cell-based; conditions: SP 1 μM; 48 h;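 also: primary human dermal fibroblasts, immunostained with rabbit polyclonal antibodies against each marker, value is percentage of stained cells among all cells counted in 20 fields at 400× per section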
Procedure: These PHF were obtained and purified from samples obtained from the dermis of the skin of healthy volunteers as described in De Bari et al (De Bari et al. 2001). Briefly, small pieces of skin dermis were digested in a solution of hyaluronidase (Sigma-Aldrich, USA) at a concentration of 1 mg/ml for 15 minutes at 37° C. and then treated with 6 mg/ml collagenase type IV (Invitrogen) for 2 hours at 37° C. Then, the cells were washed, resuspended in DMEM culture medium with high glucose (Dulbecco's Modified Eagle's Medium, Invitrogen) supplemented with 1% antibiotic-antimycotic (Invitrogen) and 1% pyruvate Sodium (Invitrogen), and seeded in culture dishes at a concentration of 10,000 cells per square centimeter. When the cells reached confluence, adherent cells were detached using 0.5% sterile trypsin (Invitrogen) and used between passages 3 and 9. For tests shown below, the PHF were plated in 24-well plates at a concentration of 25,000 cells per well.
After 48 hours of culture, cells were harvested and paraffin cell-blocks for immunohistochemical analysis were constructed, as previously explained in Example 1.
In immunohistochemical assays the expression of the following markers were studied: TGFα (SAB4502953), TGF1 (SAB4502954), TGFβ2 (SAB4502956), TGFβ3 (SAB4502957), SPARC (HPA002989), MMP-3 (HPA007875) MMP-7 (SAB4501894), MMP-9 (SAB4501896), MMP-11 (SAB4501898), MMP-13 (SAB4501900) and MMP-14 (SAB4501901) using specific antibodies against them. All antibodies used were rabbit polyclonal antibodies obtained from Sigma-Aldrich and were used at a concentration of 1/1000. All experiments were carried out sixfold.
On each of the six sections cell counts were performed in 20 high power fields (400×) through an Olympus microscope (model CX31) to assess the immunostaining. On each of the fields total cell number and number of cells displaying immunostaining were counted, being then the percentage of cells displaying said immunostaining.

[3] = system: fibroblasts (PHF) co-cultured with tumor cells of human endometrial carcinoma (AN3-CA); test: Marker expression (IHC) in PHF co-cultured with AN3-CA tumor cells; assay type: cell-based; conditions: co-culture with AN3-CA; SP 1 μM; 48 h;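 also: cultured in fresh healthy-donor blood plasma with added antibiotic-antimycotic, run in six replicates, values give percent of fibroblasts positive for each marker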
Procedure: as §1

[4] = system: fibroblasts (PHF) co-cultured with human melanoma tumor cells (MEL-HO1); test: Marker expression (IHC) in PHF co-cultured with MEL-HO1 tumor cells; assay type: cell-based; conditions: PHF co-cultured with MEL-HO1 + SP;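 also: values are the percentage of fibroblasts positive for each marker, with cultures grown in fresh healthy-donor blood plasma and each experiment run six times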
Procedure: as §1

[5] = system: fibroblasts (PHF) co-cultured with tumor cells of lung carcinoma (A-427); test: Marker expression (IHC) in PHF co-cultured with A-427 tumor cells; assay type: cell-based, human; conditions: co-culture with A-427 lung carcinoma; SP 1 μM; 48 h;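 also: cultures grown in human blood plasma from a healthy donor, value is the percentage of fibroblasts positive for each marker, six replicates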
Procedure: as §1

For CSCC[C@H](NC(=O)[C@H](CC(C)C)NC(=O)CNC(=O)[C@H](Cc1ccccc1)NC(=O)[C@H](Cc1ccccc1)NC(=O)[C@H](CCC(N)=O)NC(=O)[C@H](CCC(N)=O)NC(=O)[C@@H]1CCCN1C(=O)[C@H](CCCCN)NC(=O)[C@@H]1CCCN1C(=O)[C@@H](N)CCCNC(=N)N)C(N)=O [SP], the “PHF cells expressing MMP-3” value [1] was 43.3 ± 2.7%, the “PHF cells expressing MMP-7” value [1] was 54.3 ± 4.8% and the “PHF cells expressing MMP-9” value [1] was 51.4 ± 2.4%. The “PHF cells expressing MMP-11” value [1] was 28.5 ± 3.8%, the “PHF cells expressing MMP-13” value [1] was 46 ± 2.5% and the “PHF cells expressing MMP-14” value [1] was 49 ± 3.5%. For the same compound, the “PHF cells expressing SPARC” value [1] was 48.1 ± 3.2%, the “PHF cells expressing TGF-α” value [1] was 41.4 ± 2.1% and the “PHF cells expressing TGF-β1” value [1] was 34.5 ± 3.1%. The “PHF cells expressing TGF-β2” value [1] was 42.5 ± 2.1%, the “PHF cells expressing TGF-β3” value [1] was 4.11 ± 3.6% and the “PHF cells expressing MMP-3” value [2] was 33.9 ± 2.2%. For the same compound, the “PHF cells expressing MMP-7” value [2] was 46.2 ± 2.3%, the “PHF cells expressing MMP-9” value [2] was 35.5 ± 2.5% and the “PHF cells expressing MMP-11” value [2] was 7.8 ± 2.9%. For the same compound, the “PHF cells expressing MMP-13” value [2] was 17.1 ± 2.6%, the “PHF cells expressing MMP-14” value [2] was 47.3 ± 2.5% and the “PHF cells expressing SPARC” value [2] was 16 ± 1.9%. For the same compound, the “PHF cells expressing TGFα” value [2] was 16.5 ± 1.2%, the “PHF cells expressing TGFβ 1” value [2] was 18.4 ± 1.3% and the “PHF cells expressing TGFβ 2” value [2] was 24.6 ± 1.4%. For the same compound, the “PHF cells expressing TGFβ 3” value [2] was 23.1 ± 1.7%, the “PHF cells expressing MMP-3” value [3] was 44.2 ± 2.7% and the “PHF cells expressing MMP-7” value [3] was 54.4 ± 2.1%. The “PHF cells expressing MMP-9” value [3] was 54.3 ± 1.6%, the “PHF cells expressing MMP-11” value [3] was 29.4 ± 1.8% and the “PHF cells expressing MMP-13” value [3] was 49 ± 3.4%. The “PHF cells expressing MMP-14” value [3] was 45.2 ± 3.5%, the “PHF cells expressing SPARC” value [3] was 49 ± 1.5% and the “PHF cells expressing TGF-α” value [3] was 42.4 ± 2%. The “PHF cells expressing TGF-β1” value [3] was 33.3 ± 3.1%, the “PHF cells expressing TGF-β2” value [3] was 43.5 ± 1.1% and the “PHF cells expressing TGF-β3” value [3] was 44 ± 1.56%. The “cells expressing MMP-3” value [4] was 44.5 ± 4.7%, the “cells expressing MMP-7” value [4] was 55.5 ± 3.8% and the “cells expressing MMP-9” value [4] was 53.3 ± 2.4%. For the same compound, the “cells expressing MMP-11” value [4] was 24.4 ± 3.8%, the “cells expressing MMP-13” value [4] was 46.1 ± 3.5% and the “cells expressing MMP-14” value [4] was 46.2 ± 3.5%. The “cells expressing SPARC” value [4] was 44.5 ± 1.4%, the “cells expressing TGF-α” value [4] was 42.4 ± 3.2% and the “cells expressing TGF-β1” value [4] was 42.5 ± 2.1%. The “cells expressing TGF-β2” value [4] was 44.5 ± 1.9%, the “cells expressing TGF-β3” value [4] was 43.5 ± 2.6% and the “PHF cells expressing MMP-3” value [5] was 45.5 ± 1.6%. For the same compound, the “PHF cells expressing MMP-7” value [5] was 54.3 ± 2.2%, the “PHF cells expressing MMP-9” value [5] was 55.5 ± 2.4% and the “PHF cells expressing MMP-11” value [5] was 25.5 ± 1.8%. The “PHF cells expressing MMP-13” value [5] was 44.3 ± 2.5%, the “PHF cells expressing MMP-14” value [5] was 45.1 ± 3.5% and the “PHF cells expressing SPARC” value [5] was 47 ± 1.2%. For the same compound, the “PHF cells expressing TGF-α” value [5] was 42.3 ± 2.1%, the “PHF cells expressing TGF-β1” value [5] was 33.4 ± 2.1% and the “PHF cells expressing TGF-β2” value [5] was 40.9 ± 2.1%. The “PHF cells expressing TGF-β3” value [5] was 51.4 ± 1.6%.
